The text below walks through data of patent publication US10080756B2, “Combination methods for treating cancers” (Gilead Sciences, Inc., priority 2014, dated 2018).

Structures are written as SMILES. Where two headings read alike, the source gives them in different places.

The conditions of series [1]: cited from earlier work.
Series [2] can be described thus: Cell Titer Glo viability assay, summary over all cell lines tested. Particulars: B-cell; range over the 17 cell lines of Table 1; read-out: EC50 values to inhibit cell viability, range over cell lines. Type of series: cell-based. Here is the method: (§1) All procedures were performed at Gilead Sciences, Inc. in Branford, The compound of formula (I), cyclophosphamide, doxorubicin and vincristine sulfate were dissolved in DMSO to prepare stock solutions that were serially diluted three-fold in DMSO in a 96 well plate format at 1000× so the final starting assay concentrations tested would be 10 μM, 200 μM, 10 μM, and 1 μM respectively, for each compound. Compound plates were diluted 1:100 in RPMI without serum or additives creating a 10× stock. Cells were seeded into a 96-well plate at 10,000-20,000 cells per well in 100 μl of growth media appropriate to the cell line supplemented with 100 U/L penicillin-streptomycin. OCI-Ly3, OCI-Ly4 and OCI-Ly7 were grown in Iscove's+20% FBS, OCI-Ly19 was grown in alphaMEM+20% FBS, and all other cell lines were grown in RPMI+10% FBS. To each well, 11 μl of 10× compound was added in a final concentration of 0.1% DMSO and cells were incubated at 37° C. in 5% CO2 for 72 hours. Cell viability was assessed with Cell Titer Glo (Promega, Madison, Wis.) following the manufacturer's protocol on an Envision plate reader (Perkin Elmer, Waltham, Mass.). EC50 values were determined using a four parameter variable slope model with GraphPad Prism 6.0 software. All EC50 values represent mean values of from duplicate dose response curves.
A general note: ATP-based viability assays read luminescence as a measure of living cells.

Another series deals with RPMI-8266. The series is described as follows: Cell Titer Glo viability assay, RPMI-8266. It is filed as cell-based. Particulars: RPMI8266; RPMI-8266, MM; single agent; 72 hours; read-out: Inhibition of Viability, EC50. Here is the method:
as §1

In another series the test system is SU-DHL-4. The series is described as follows: Cell Titer Glo viability assay, SU-DHL-4. It is filed as cell-based. Particulars: Homo sapiens; SU-DHL-4, DLBCL; single agent; 72 hours; read-out: Inhibition of Viability, EC50. Here is the method: as §1
The next series has as its system MM1.S. The series is described as follows: Cell Titer Glo viability assay, MM1.S. Type of series: cell-based. Particulars: Homo sapiens, MM, single agent, 72 hours, read-out: Inhibition of Viability, EC50. On the procedure: as §1
A further series concerns SU-DHL-10. The experiment in a line: SU-DHL-10 mouse xenograft model of diffuse large B cell lymphoma, tumor growth. It is filed as in vivo. Particulars: for complete or partial regressions (in words): single agents; for partial tumor regressions: treatment alone. Here is the method: Entospletinib was evaluated for efficacy in vivo as a single agent and in combination with vincristine in a subcutaneous cell line tumor xenograft model in male SCID beige mice using the human diffuse large B-cell lymphoma cell line, SU-DHL-10 in a 2×2 dose level matrix of Entospletinib and vincristine.
Formulation—Entospletinib was formulated in a complete vehicle of 0.5% HPMC-0.2% Tween 80 (pH 3.5 50 mM acetate buffer, and the lower dose was prepared by direct dilution). The high dose formulation was mixed using a stir bar (and Polytroned briefly as needed to break up clumps of compound) to form a yellow solution (pH=1.8), which became an opaque suspension within 30 minutes. The dosing suspension was prepared fresh daily and stored at 4° C. protected from light between treatments.
The formulation for the highest dose group of vincristine was prepared by diluting the stock solution with 0.9% sterile saline, and the lower dose was prepared by direct dilution of that stock with saline. […] The dosing formulations were prepared just prior to each treatment.
Male Harlan SCID beige mice (C.B-17/IcrHsd-Prkdc^scidLyst^bg-J) were used in this study. They were 6-7 weeks old on Day 1 of the experiment and were fed irradiated Harlan 2918.15 Rodent Diet and water ad libitum. Animals were housed in static cages with Bed-O'Cobs™ bedding (The Andersons Lab Bedding Products) inside Biobubble® Clean Rooms that provide H.E.P.A filtered air into the bubble environment at 100 complete air changes per hour. All treatments, body weight determinations, and tumor measurements were carried out in the bubble environment. The environment was controlled to a temperature range of 70°±2° F. and a humidity range of 30-70%.
SU-DHL-10 cells were obtained from Leibniz Institute DSMZ-German Collection of Microorganisms and Cell Cultures (DSMZ). They were grown in RPMI 1640 medium which was modified with 1% 100 mM Na pyruvate, 1% 1M HEPES buffer, 1% of a 45% glucose solution and supplemented with 10% non-heat-inactivated Fetal Bovine Serum (FBS) and 1% 100× Penicillin/Streptomycin/L-Glutamine (PSG). The growth environment was maintained in an incubator with a 5% CO2 atmosphere at 37° C. The cells were centrifuged at 200 rcf for 8 minutes at 8° C., the supernatant aspirated, and the pellet re-suspended in cold Dulbecco's Phosphate Buffered Saline (DPBS) by pipetting. An aliquot of the homogeneous cell suspension was diluted with a trypan blue solution and counted using a Luna automated cell counter. The pre-implantation cell viability was 91%. The cell suspension was centrifuged at 200 rcf for 8 minutes at 8° C. The supernatant was aspirated and the cell pellet was re-suspended in cold 50% serum-free medium:50% Matrigel® Matrix (Corning) to generate a final concentration of 2.5E+07 cells/ml. The cell suspension was maintained on wet ice during implantation. Following implantation, an aliquot of the remaining cells was diluted with a trypan blue solution and counted to determine the post-implantation cell viability (91%). Test animals were implanted subcutaneously, high in the axilla (just under the fore limb) on Day 0 with 5.0×10^6 cells in 0.2 ml of 50% serum-free medium: 50% Matrigel® Matrix using a 27-gauge needle and syringe.
All mice were sorted into study groups based on tumor burden (estimated from caliper measurements). Efficacy was evaluated by tumor volume/weight monitored during and after treatment. Tumor burden (mg) was measured three times weekly by using caliper measurements and converting to tumor mass by the formula for the volume of a prolate ellipsoid assuming unit density as: Tumor burden (mg)=(L×W^2)/2 • where L and W are the respective orthogonal tumor length and width measurements (mm). The criteria used for a successful distribution in this study was a mean tumor burden for all groups within 10% of the overall mean tumor burden for the study population Treatment began on Day 16 at an overall mean tumor burden of 197 mm^3. […]

Series [3] deals with 10 diffuse large B-cell lymphoma (DLBCL), 4 multiple myeloma (MM), 2 follicular lymphoma (FL), and 1 mantle cell lymphoma (MCL) cell lines. The experiment in a line: Cell Titer Glo viability assay, summary over all cell lines tested. It is filed as cell-based. Particulars: at concentrations <3000 nM. On the procedure:
as §1

A word on the EC50: it is the concentration giving half of the maximal effect. `CC[C@]1(O)C[C@H]2CN(CCc3c([nH]c4ccccc34)[C@@](C(=O)OC)(c3cc4c(cc3OC)N(C=O)[C@H]3[C@@](O)(C(=O)OC)[C@H](OC(C)=O)[C@]5(CC)C=CCN6CC[C@]43[C@@H]65)C2)C1` [Vincristine, vincristine]: the solubility result is on record as “only slightly soluble” in series [1] (95% ethanol), “soluble” in series [1] (methanol) and “freely soluble” in series [1] (water). For the same compound, the EC50 was not above 0.103 µM in series [2], 0.067 µM with RPMI-8266, 0.075 µM in the series on SU-DHL-4 and 0.059 µM in the series on MM1.S. Besides, the “Day 31 % Tumor Growth Inhibition” value in the series with SU-DHL-10 (Vehicle for ENTO + VCR 0.15 mg/kg Q7Dx3 (group 5)) was found to be 42%; in the series on SU-DHL-10 (Vehicle for ENTO + VCR 0.5 mg/kg Q7Dx3 (group 4)), 85%. Moreover, in the series with SU-DHL-10, the “complete or partial regressions (in words)” value is listed as “no complete or partial regressions”. The partial tumor regressions in the series with SU-DHL-10 was determined as 0%. Also, in the series on SU-DHL-10 (vincristine at both 0.15 and 0.5 mg/kg), the “inhibition of tumor growth (in words)” value is reported as “significant inhibition of tumor growth”.

As to `c1cn2cc(-c3ccc4cn[nH]c4c3)nc(Nc3ccc(N4CCOCC4)cc3)c2n1` [Compound of Formula I, 6-(1H-indazol-6-yl)-N-(4-morpholinophenyl)imidazo[1,2-a]pyrazin-8-amine], in series [3], the “inhibition of cell viability in any of the cell lines tested” value is “did not show inhibition cell viability”. The EC50 in the series on RPMI-8266, in the series on SU-DHL-4 and in the series with MM1.S was more than 3 µM each time. The “Day 31 % Tumor Growth Inhibition” value is given as 20% in the series with SU-DHL-10 (ENTO 25 mg/kg BID + Vehicle for VCR Q7Dx3 (group 3)) and 39% in the series with SU-DHL-10 (ENTO 75/50 mg/kg BID + Vehicle for VCR Q7Dx3 (group 2)). In the series with SU-DHL-10 (Entospletinib dosed alone at 25 or 75/50 mg/kg), the “inhibition of tumor growth (in words)” value is on record as “inhibited tumor growth but to a lesser degree than that seen with vincristine”. In addition, in the series on SU-DHL-10, the “complete or partial regressions (in words)” value is “no complete or partial regressions”. The partial tumor regressions in the series with SU-DHL-10 is recorded as 0%.
